# Legend:
# [1] = biological target: T1, α4β1 RAMOS/VCAM-1 adhesion (Homo sapiens, UniProt P05556+P13612); assay: Integrin α4β1-VCAM-1 cell adhesion assay, RAMOS cells (Example 7); assay type: cell-based; conditions: rhVCAM-1 coated plate, DMEM binding buffer
# T1 construct: host or cells: RAMOS
# Description: The human B lymphocyte cell line RAMOS was obtained from the Zealand Pharma culture collection.
# Compound 1 and Comparative compounds 1 and 2 were reconstituted in DMSO to a concentration of 10 mM.
# CFSE-labelled RPMI 8866 cells were added to the plate coated with rhMAdCAM-1 and CFSE-labelled RAMOS cells were added to the plate coated with rhVCAM-1.
# After incubation, unbound cells were washed away. The cell plates were emptied by inverting and residues of liquid were removed by blotting on paper towel.
# [2] = biological target: T2, α4β7 RPMI8866/MAdCAM-1 adhesion (Homo sapiens, UniProt P13612+P26010); assay: Integrin α4β7-MAdCAM cell adhesion assay, RPMI8866 cells (Example 7); assay type: cell-based
# T2 construct: CFSE-labelled RPMI 8866 cells were added to the plate coated with rhMAdCAM-1; host or cells: RPMI 8866
# T2 sequence (P13612 34-1032): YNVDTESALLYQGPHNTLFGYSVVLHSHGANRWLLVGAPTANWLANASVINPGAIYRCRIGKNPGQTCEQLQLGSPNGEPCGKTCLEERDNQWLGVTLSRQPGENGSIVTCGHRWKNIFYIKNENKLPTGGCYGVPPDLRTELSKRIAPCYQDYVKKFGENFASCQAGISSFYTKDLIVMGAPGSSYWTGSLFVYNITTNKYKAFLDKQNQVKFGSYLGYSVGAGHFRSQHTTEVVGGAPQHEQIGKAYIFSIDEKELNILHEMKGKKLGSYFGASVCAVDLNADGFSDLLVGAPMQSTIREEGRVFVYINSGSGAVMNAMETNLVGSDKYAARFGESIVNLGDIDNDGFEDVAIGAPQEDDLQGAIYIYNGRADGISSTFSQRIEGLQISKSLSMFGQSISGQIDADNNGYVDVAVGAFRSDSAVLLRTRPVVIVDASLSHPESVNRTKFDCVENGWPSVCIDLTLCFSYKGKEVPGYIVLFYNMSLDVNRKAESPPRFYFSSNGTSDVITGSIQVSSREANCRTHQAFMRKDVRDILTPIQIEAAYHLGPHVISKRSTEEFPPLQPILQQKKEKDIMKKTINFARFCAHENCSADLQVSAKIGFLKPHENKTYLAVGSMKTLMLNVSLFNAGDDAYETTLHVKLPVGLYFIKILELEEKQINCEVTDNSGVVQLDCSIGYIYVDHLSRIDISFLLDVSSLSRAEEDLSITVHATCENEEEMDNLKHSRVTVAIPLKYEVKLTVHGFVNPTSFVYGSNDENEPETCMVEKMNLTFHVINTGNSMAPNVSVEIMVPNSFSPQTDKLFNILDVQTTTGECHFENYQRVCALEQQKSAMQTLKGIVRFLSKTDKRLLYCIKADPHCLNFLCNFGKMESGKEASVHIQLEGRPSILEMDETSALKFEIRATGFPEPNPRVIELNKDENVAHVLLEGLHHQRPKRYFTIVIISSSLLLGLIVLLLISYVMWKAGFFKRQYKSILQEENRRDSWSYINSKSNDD
# T2 sequence (P26010 20-798): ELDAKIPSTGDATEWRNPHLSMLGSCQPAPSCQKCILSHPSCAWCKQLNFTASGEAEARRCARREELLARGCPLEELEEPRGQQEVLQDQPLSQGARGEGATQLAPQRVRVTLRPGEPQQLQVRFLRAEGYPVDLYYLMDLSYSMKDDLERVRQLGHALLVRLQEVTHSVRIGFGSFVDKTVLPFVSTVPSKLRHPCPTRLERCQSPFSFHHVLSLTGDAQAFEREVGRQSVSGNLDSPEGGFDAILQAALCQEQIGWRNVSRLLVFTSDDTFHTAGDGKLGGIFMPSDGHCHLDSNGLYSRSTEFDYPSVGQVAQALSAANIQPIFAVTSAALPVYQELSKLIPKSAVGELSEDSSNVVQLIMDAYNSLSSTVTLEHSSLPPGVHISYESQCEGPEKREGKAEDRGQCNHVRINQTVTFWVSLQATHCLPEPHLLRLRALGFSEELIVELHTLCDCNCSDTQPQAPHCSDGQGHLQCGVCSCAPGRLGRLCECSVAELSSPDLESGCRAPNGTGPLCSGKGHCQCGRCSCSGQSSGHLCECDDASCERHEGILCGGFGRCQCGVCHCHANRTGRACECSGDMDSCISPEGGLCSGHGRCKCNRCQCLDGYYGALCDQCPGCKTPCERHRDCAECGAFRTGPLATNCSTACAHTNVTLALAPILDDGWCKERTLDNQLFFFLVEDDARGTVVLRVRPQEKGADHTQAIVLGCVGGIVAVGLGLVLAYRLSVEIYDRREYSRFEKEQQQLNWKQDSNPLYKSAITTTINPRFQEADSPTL
# Description: The cells were pelleted by centrifugation and resuspended in fresh pre-warmed complete culture medium and the cells were counted. […]
# [3] = Pharmacokinetic characterisation in Beagle dogs, single s.c. injection, dose range (Example 6); assay type: in vivo; conditions: male, plasma, dog, SC
# Excerpt: The dosing vehicle was PBS buffer, pH 7.
# T1 sequence (P05556 21-798, one chain of several): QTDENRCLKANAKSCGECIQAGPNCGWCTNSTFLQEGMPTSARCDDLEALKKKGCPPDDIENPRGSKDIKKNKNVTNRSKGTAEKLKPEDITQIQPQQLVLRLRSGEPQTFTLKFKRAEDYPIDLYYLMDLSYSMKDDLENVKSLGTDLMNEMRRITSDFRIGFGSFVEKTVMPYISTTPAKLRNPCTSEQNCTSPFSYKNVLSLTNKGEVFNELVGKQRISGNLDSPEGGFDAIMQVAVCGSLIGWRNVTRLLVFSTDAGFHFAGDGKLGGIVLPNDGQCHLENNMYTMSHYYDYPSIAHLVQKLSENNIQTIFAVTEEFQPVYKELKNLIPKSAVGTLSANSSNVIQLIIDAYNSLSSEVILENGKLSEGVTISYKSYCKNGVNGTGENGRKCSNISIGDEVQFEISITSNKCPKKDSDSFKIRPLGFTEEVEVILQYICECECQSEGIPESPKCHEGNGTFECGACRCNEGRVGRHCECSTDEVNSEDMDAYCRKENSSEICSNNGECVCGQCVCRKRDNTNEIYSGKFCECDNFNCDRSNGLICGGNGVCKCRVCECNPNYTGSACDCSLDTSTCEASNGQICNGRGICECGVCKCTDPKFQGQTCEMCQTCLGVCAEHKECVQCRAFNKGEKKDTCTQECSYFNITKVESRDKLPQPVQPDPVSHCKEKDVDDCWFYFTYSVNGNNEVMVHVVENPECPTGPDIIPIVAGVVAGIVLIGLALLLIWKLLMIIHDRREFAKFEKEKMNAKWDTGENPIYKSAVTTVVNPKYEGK
compound,measurement,setting,value
CC[C@H](C)[C@@H]1NC(=O)[C@H](CC(=O)O)NC(=O)[C@H](CC(C)C)NC(=O)c2ccc(-c3ccc(N4CCN(C(=O)c5ccccc5-c5ccccc5C(=O)N5CCN(c6ccc(-c7ccc8cc7CNC(=O)[C@@H]7CCCN7[C@H](C(=O)NC(C)(C)C)[C@H](C)NC(=O)[C@H]([C@@H](C)CC)NC(=O)[C@H](CC(=O)O)NC(=O)[C@H](CC(C)C)NC8=O)cc6)CC5)CC4)cc3)c(c2)CNC(=O)[C@@H]2CCCN2[C@H](C(=O)NC(C)(C)C)[C@H](C)NC1=O [Compound 1],IC50,[1],115 nM
same,IC50,"[2]; RPMI 8866 cells, rhMAdCAM-1 coated plate, DMEM binding buffer",7.2 nM
same,Selectivity ratio,[2]; α4β1 RAMOS/VCAM-1 IC50 versus α4β7 RPMI8866/MAdCAM-1 IC50,16.0
same,AUC,[3]; 10 ug/kg,2.46 µM·h
same,AUC,[3]; 20 ug/kg,5.68 µM·h
same,AUC,[3]; 50 ug/kg,11.6 µM·h
same,AUC,[3]; 100 ug/kg,58.6 µM·h
same,AUC,[3]; 200 ug/kg,72.5 µM·h
same,AUC,[3]; 400 ug/kg,158 µM·h
